One experiment concerns PMM2-CDG patient (P5). The experiment can be described thus: Fructose tolerance test, urine polyols. Type of experiment: in vivo, human. As to conditions: P5, fasting, 1 g/kg oral fructose. On the procedure:
Fructose tolerance test was performed in P5 according to the standard clinical protocol at fasting state with 1 g/kg oral fructose, and the first voided urine was collected.

The subject of experiment [1] is patient and control fibroblasts. The experiment can be described thus: 13C6-fructose incubation of fibroblasts, polyol and hexose pools. To be noted: 0.15 mM 13C6-fructose, 5.5 mM glucose. Type of experiment: cell-based, human. On the procedure: Next, the influence of dietary fructose on the urine polyol levels in PMM2-CDG was evaluated. Fructose has become one of the major sources of energy in the western diet and has been associated with numerous disorders such as diabetes, hypertension, obesity, etc. Peripheral fasting fructose levels range between 0.01-0.07 mM and can increase by 5-fold after consumption of a fructose rich meal. […] The possibility of fructose contributing to the polyols increase seen in PMM2-CDG was therefore tested. First, a fructose tolerance test in individuals with PMM2-CDG (P5) was performed. […] Then, to investigate the contribution of fructose in intracellular polyol accumulation, patient and control fibroblasts were incubated in the presence of 5.5 mM glucose and 0.15 mM (average blood fructose concentration upon fructose rich meal)^13C6-fructose and medium containing dialyzed FBS (FIG. 2A).

As to `O=C(CO)[C@@H](O)[C@H](O)[C@H](O)CO` [fructose], in the experiment with PMM2-CDG patient (P5), the “fold increase of urine mannitol after fructose tolerance test” value was 3 times and the “fold increase of urine sorbitol after fructose tolerance test” value is “approximately 7 times”.
As to `OCC1(O)OC[C@@H](O)[C@@H](O)[C@@H]1O` (some centres unmarked) [^13C6-fructose], the “Fractional Contribution (FC) in total hexose pool” value in experiment [1] (PMM2-CDG and controls) is 4%. Also, in experiment [1] (dialyzed FBS), the hexose pool abundance result is on record as “increase” and the polyol pool abundance result was “increase”.

The values above are taken from patent US20260335294A1, “TREATING CONGENITAL DISORDERS OF GLYCOSYLATION” (Mayo Foundation for Medical Education and Research, priority 2022, published 2026).
